Legend:
GST-Bcl-2 = GST-Bcl-2 (Homo sapiens, UniProt P10415); experiment: TR-FRET binding assay, GST-Bcl-2 with F-Bak peptide probe; conditions: for Ki: TR-FRET Binding Affinity, GST-Bcl-2, F-Bak peptide probe; for Binding selectivity ratio (Bcl-XL Ki/Bcl-2 Ki): ratio of TR-FRET Ki values, Bcl-XL over Bcl-2
Method in brief: (§1)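 Ki was derived with Wang's equation for competitive binding of two ligands. The read-out was time-resolved fluorescence after a 3 h room-temperature incubation, using a Tb-labelled antibody donor and the F-Bak peptide acceptor (excitation 340/35 nm). Test compounds entered as DMSO serial dilutions starting at 50 μM, which was the 2× concentration.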

GST-Bcl-XL = GST-Bcl-XL (Homo sapiens, UniProt Q07817); experiment: TR-FRET binding assay, GST-Bcl-XL with F-Bak peptide probe; conditions: TR-FRET Binding Affinity, GST-Bcl-XL, F-Bak peptide probe
Method in brief: as §1

FL5.12/Bcl-2 cells = experiment: FL5.12/Bcl-2 cell viability assay under IL-3 withdrawal (CellTitre Glo); type: cell-based, murine; conditions: Mus musculus, IL-3 withdrawn 48 hrs, then 24 hrs with compound
Method in brief: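 Viability measured with CellTiter-Glo after 24 h compound treatment at various concentrations, following 48 h IL-3 withdrawal (no WEHI-3B medium). Cells: prolymphocytic mouse FL5.12 line stably transfected to overexpress Bcl-2, cultured at 37 °C, 5% CO2.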

GST-Bcl-2, sequence (P10415 whole entry): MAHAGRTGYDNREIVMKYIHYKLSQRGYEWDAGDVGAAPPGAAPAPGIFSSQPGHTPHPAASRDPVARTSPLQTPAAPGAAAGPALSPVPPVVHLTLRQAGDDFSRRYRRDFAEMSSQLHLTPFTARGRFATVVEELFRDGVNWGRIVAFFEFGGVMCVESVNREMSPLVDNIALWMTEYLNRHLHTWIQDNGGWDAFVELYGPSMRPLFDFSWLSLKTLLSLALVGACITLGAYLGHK
GST-Bcl-XL, sequence (Q07817 whole entry): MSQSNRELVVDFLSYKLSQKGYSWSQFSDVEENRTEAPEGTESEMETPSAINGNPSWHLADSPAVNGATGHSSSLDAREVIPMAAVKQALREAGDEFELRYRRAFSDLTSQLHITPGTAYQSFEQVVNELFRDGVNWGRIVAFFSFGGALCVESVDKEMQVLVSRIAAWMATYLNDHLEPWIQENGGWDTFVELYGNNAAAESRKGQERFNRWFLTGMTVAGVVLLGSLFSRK

Row | Structure (SMILES) | Ki (GST-Bcl-2) [nM] | Ki (GST-Bcl-XL) [nM] | EC50 (FL5.12/Bcl-2 cells) [nM] | Binding selectivity ratio (Bcl-XL Ki/Bcl-2 Ki) (GST-Bcl-2)
1 | CC1(C)CC(c2ccc(Cl)cc2)=C(CN2CCN(c3ccc(C(=O)NS(=O)(=O)c4ccc(NCC5CCOCC5)c([N+](=O)[O-])c4)c(Oc4ccc5[nH]ccc5c4)c3)CC2)CO1 [Example 182, 4-(4-{[4-(4-chlorophenyl)-6,6-dimethyl-5,6-dihydro-2H-pyran-3-yl]methyl}piperazin-1-yl)-2-(1H-indol-5-yloxy)-N-({3-nitro-4-[(tetrahydro-2H-pyran-4-ylmethyl)amino]phenyl}sulfonyl)benzamide] | 0.087 | > 660 | 12.4 | 
2 | CC1(C)CCC(CN2CCN(c3ccc(C(=O)NS(=O)(=O)c4ccc(NCC5CN(C6CC6)CCO5)c([N+](=O)[O-])c4)c(Oc4cccc5[nH]ncc45)c3)CC2)=C(c2ccc(Cl)cc2)C1 (centres unmarked) [Example 411, 4-(4-{[2-(4-chlorophenyl)-4,4-dimethylcyclohex-1-en-1-yl]methyl}piperazin-1-yl)-N-[(4-{[(4-cyclopropylmorpholin-2-yl)methyl]amino}-3-nitrophenyl)sulfonyl]-2-(1H-indazol-4-yloxy)benzamide] | 0.003 | 7.45 | 11.4 | 2352.3
3 | CC1(C)CCC(CN2CCN(c3ccc(C(=O)NS(=O)(=O)c4ccc(NCC5CCS(=O)(=O)CC5)c([N+](=O)[O-])c4)c(Oc4cccc5[nH]ccc45)c3)CC2)=C(c2ccc(Cl)cc2)C1 [Example 301, 4-(4-{[2-(4-chlorophenyl)-4,4-dimethylcyclohex-1-en-1-yl]methyl}piperazin-1-yl)-N-[(4-{[(1,1-dioxidotetrahydro-2H-thiopyran-4-yl)methyl]amino}-3-nitrophenyl)sulfonyl]-2-(1H-indol-4-yloxy)benzamide] | 0.291 | > 660 | 59.5 | 
4 | CN1CCC(O)(CCNc2ccc(S(=O)(=O)NC(=O)c3ccc(N4CCN(CC5=C(c6ccc(Cl)cc6)CC(C)(C)CC5)CC4)cc3Oc3ccc4[nH]ccc4c3)cc2[N+](=O)[O-])CC1 [Example 211, 4-(4-{[2-(4-chlorophenyl)-4,4-dimethylcyclohex-1-en-1-yl]methyl}piperazin-1-yl)-N-[(4-{[2-(4-hydroxy-1-methylpiperidin-4-yl)ethyl]amino}-3-nitrophenyl)sulfonyl]-2-(1H-indol-5-yloxy)benzamide] | 0.009 | 5.61 | 17.1 | 
5 | CC1(C)CCC(CN2CCN(c3ccc(C(=O)NS(=O)(=O)c4ccc(NCCC#N)c([N+](=O)[O-])c4)c(Oc4cccc5[nH]ccc45)c3)CC2)=C(c2ccc(Cl)cc2)C1 [Example 320, 4-(4-{[2-(4-chlorophenyl)-4,4-dimethylcyclohex-1-en-1-yl]methyl}piperazin-1-yl)-N-({4-[(2-cyanoethyl)amino]-3-nitrophenyl}sulfonyl)-2-(1H-indol-4-yloxy)benzamide] | 1.24 | 129 | 41.6 | 
6 | CC1(C)CCC(CN2CCN(c3ccc(C(=O)NS(=O)(=O)c4ccc(CCC5OCCO5)c([N+](=O)[O-])c4)c(Oc4ccc5[nH]ccc5c4)c3)CC2)=C(c2ccc(Cl)cc2)C1 [Example 278, 4-(4-{[2-(4-chlorophenyl)-4,4-dimethylcyclohex-1-en-1-yl]methyl}piperazin-1-yl)-N-({4-[2-(1,3-dioxolan-2-yl)ethyl]-3-nitrophenyl}sulfonyl)-2-(1H-indol-5-yloxy)benzamide] | 0.71 | > 660 | 153 | 
7 | CC1(C)CCC(CN2CCN(c3ccc(C(=O)NS(=O)(=O)c4ccc(NCC5(N6CCOCC6)CCCCC5)c([N+](=O)[O-])c4)c(Oc4ccc5[nH]ccc5c4)c3)CC2)=C(c2ccc(Cl)cc2)C1 [Example 229, 4-(4-{[2-(4-chlorophenyl)-4,4-dimethylcyclohex-1-en-1-yl]methyl}piperazin-1-yl)-2-(1H-indol-5-yloxy)-N-[(4-{[(1-morpholin-4-ylcyclohexyl)methyl]amino}-3-nitrophenyl)sulfonyl]benzamide] | 49.4 | > 660 | > 500 | 
8 | CC1(C)CCC(CN2CCN(c3ccc(C(=O)NS(=O)(=O)c4ccc(N[C@H]5CC[C@H](N6CCOCC6)CC5)c([N+](=O)[O-])c4)c(Oc4cccc5[nH]ccc45)c3)CC2)=C(c2ccc(Cl)cc2)C1 [Example 204, Trans-4-(4-{[2-(4-chlorophenyl)-4,4-dimethylcyclohex-1-en-1-yl]methyl}piperazin-1-yl)-2-(1H-indol-4-yloxy)-N-({4-[(4-morpholin-4-ylcyclohexyl)amino]-3-nitrophenyl}sulfonyl)benzamide] | 0.145 | 42.3 | 27.4 | 
9 | CC1(C)CCC(CN2CCN(c3ccc(C(=O)NS(=O)(=O)c4ccc(NC5CCN(CCCC(F)(F)F)CC5)c([N+](=O)[O-])c4)c(Oc4cccc5[nH]ccc45)c3)CC2)=C(c2ccc(Cl)cc2)C1 [Example 210, 4-(4-{[2-(4-chlorophenyl)-4,4-dimethylcyclohex-1-en-1-yl]methyl}piperazin-1-yl)-2-(1H-indol-4-yloxy)-N-[(3-nitro-4-{[1-(4,4,4-trifluorobutyl)piperidin-4-yl]amino}phenyl)sulfonyl]benzamide] | 0.624 | > 660 | 257 | 
10 | CC1(C)CCC(CN2CCN(c3ccc(C(=O)NS(=O)(=O)c4ccc(NC5CCN(C6CCOCC6)CC5)c([N+](=O)[O-])c4)c(Oc4cccnc4)c3)CC2)=C(c2ccc(Cl)cc2)C1 [Example 398, 4-(4-{[2-(4-chlorophenyl)-4,4-dimethylcyclohex-1-en-1-yl]methyl}piperazin-1-yl)-N-({3-nitro-4-[(1-tetrahydro-2H-pyran-4-ylpiperidin-4-yl)amino]phenyl}sulfonyl)-2-(pyridin-3-yloxy)benzamide] | 1.23 | 83.4 | 334 | 67.7
11 | CC(C)(C)c1ccc(CN2CCN(c3ccc(C(=O)NS(=O)(=O)c4ccc(NC5CCN(C6CCOCC6)CC5)c([N+](=O)[O-])c4)c(Oc4ccc5[nH]ccc5c4)c3)CC2)c(-c2ccc(Cl)cc2)c1 [Example 359, 4-{4-[(5-tert-butyl-4′-chloro-1,1′-biphenyl-2-yl)methyl]piperazin-1-yl}-2-(1H-indol-5-yloxy)-N-({3-nitro-4-[(1-tetrahydro-2H-pyran-4-ylpiperidin-4-yl)amino]phenyl}sulfonyl)benzamide] | 13.5 | > 660 | > 500 | 
12 | CN(C)CCOc1cccc(-c2ccc(Cl)cc2)c1CN1CCN(c2ccc(C(=O)NS(=O)(=O)c3ccc(NC4CCN(C)CC4)c([N+](=O)[O-])c3)c(Oc3cccc4[nH]ccc34)c2)CC1 [Example 205, 4-[4-({4′-chloro-3-[2-(dimethylamino)ethoxy]-1,1′-biphenyl-2-yl}methyl)piperazin-1-yl]-2-(1H-indol-4-yloxy)-N-({4-[(1-methylpiperidin-4-yl)amino]-3-nitrophenyl}sulfonyl)benzamide] | 0.005 | 3.57 | 37.5 | 
13 | CC1(C)CCC(CN2CCN(c3ccc(C(=O)NS(=O)(=O)c4ccc(NCC5(C)COC5)c([N+](=O)[O-])c4)c(Oc4ccc5[nH]ccc5c4)c3)CC2)=C(c2ccc(Cl)cc2)C1 [Example 264, 4-(4-{[2-(4-chlorophenyl)-4,4-dimethylcyclohex-1-en-1-yl]methyl}piperazin-1-yl)-2-(1H-indol-5-yloxy)-N-[(4-{[(3-methyloxetan-3-yl)methyl]amino}-3-nitrophenyl)sulfonyl]benzamide] | 0.235 | > 660 | 25.7 | 
14 | CN(C)CCOc1cccc(-c2ccc(Cl)cc2)c1CN1CCN(c2ccc(C(=O)NS(=O)(=O)c3ccc(NC4CCN(C5CCOCC5)CC4)c([N+](=O)[O-])c3)c(Oc3cccc4[nH]ccc34)c2)CC1 [Example 199, 4-[4-({4′-chloro-3-[2-(dimethylamino)ethoxy]-1,1′-biphenyl-2-yl}methyl)piperazin-1-yl]-2-(1H-indol-4-yloxy)-N-({3-nitro-4-[(1-tetrahydro-2H-pyran-4-ylpiperidin-4-yl)amino]phenyl}sulfonyl)benzamide] | 0.014 | 5.23 | 28.5 | 
15 | CC1(C)CCC(CN2CCN(c3ccc(C(=O)NS(=O)(=O)c4ccc(NCCCN5CCOCC5)c(S(=O)(=O)C(F)(F)F)c4)c(Oc4cccc5[nH]ccc45)c3)CC2)=C(c2ccc(Cl)cc2)C1 [Example 349, 4-(4-{[2-(4-chlorophenyl)-4,4-dimethylcyclohex-1-en-1-yl]methyl}piperazin-1-yl)-2-(1H-indol-4-yloxy)-N-({4-[(3-morpholin-4-ylpropyl)amino]-3-[(trifluoromethyl)sulfonyl]phenyl}sulfonyl)benzamide] | 0.467 | 24.2 | 146 | 
16 | CC1(C)CCC(CN2CCN(c3ccc(C(=O)NS(=O)(=O)c4ccc(NCC(F)(F)F)c([N+](=O)[O-])c4)c(Oc4ccc5[nH]ccc5c4)c3)CC2)=C(c2ccc(Cl)cc2)C1 [Example 344, 4-(4-{[2-(4-chlorophenyl)-4,4-dimethylcyclohex-1-en-1-yl]methyl}piperazin-1-yl)-2-(1H-indol-5-yloxy)-N-({3-nitro-4-[(2,2,2-trifluoroethyl)amino]phenyl}sulfonyl)benzamide] | 0.284 | 447 | 71.5 | 
17 | COCCNC(=O)c1ccc(S(=O)(=O)NC(=O)c2ccc(N3CCN(CC4=C(c5ccc(Cl)cc5)CC(C)(C)CC4)CC3)cc2Oc2ccc3[nH]ccc3c2)cc1 [Example 332, 4-(4-{[2-(4-chlorophenyl)-4,4-dimethylcyclohex-1-en-1-yl]methyl}piperazin-1-yl)-2-(1H-indol-5-yloxy)-N-[(4-{[(2-methoxyethyl)amino]carbonyl}phenyl)sulfonyl]benzamide] | 12.6 | > 660 | > 500 | 
